# Results taken from US20090298814A1, “Novel salts of conjugated psychotropic drugs and processes of preparing same” (RAMOT AT TEL AVIV UNIVERISTY LTD, priority 2005, published 2009).
# Counter-ions that a name gives are not always drawn.
# Columns and labels:
# Type in all cases: physicochemical
# [1] = Stability of AN-197 by daily HPLC over 24 days, mobile phase solution vs neat oil; details: 20° C.
# Description: (§1) HPLC analyses were performed on a Water 2695 Separations Module, using a Luna C18 (2) 50 mm×4.6 mm×3 um column, a 5 μl injection volume and a 2487 dual wavelength detector under the following instrumental conditions: Mobile phase A: 0.1% formic acid; Mobile phase B: acetonitrile; Flow rate: 0.5 ml per minute; Mobile phase gradient: 0.0 minutes 90% A, 10% B, 14.0 minutes 20% A, 80% B, 15.0 minutes 90% A, 10% B and 20.0 minutes 90% A, 10% B; Run time: 20 minutes; Detection: UV at 254 nm; Column temperature: 40° C.
# The stability of AN-197 was determined by performing an HPLC analysis daily during a period of 24 days and determining the appearance of perphenazine and GABA, the degradation products of AN-197. A sample of AN-197, prepared according to the procedure described above in Example 4 (Route B), was dissolved in the mobile phase solution used in the HPLC analysis (2:1 acetonitrile:water, pH=8) and was kept at 20° C. For comparison, a sample of neat AN-197 was kept under the same conditions and was similarly analyzed.
# [2] = Stability of AN-197 in dichloromethane, acetonitrile or ethyl acetate heated to 40° C. overnight; details: dissolved in dichloromethane
# Description: To evaluate the stability of AN-197 under conditions of a large scale production, characterized by longer procedure times, samples of AN-197, prepared according to the procedure described in Example 4 above (Route B) above, dissolved in dichloromethane, acetonitrile or ethyl acetate were heated to 40° C. overnight. […] It was therefore concluded that AN-197 is stable under such conditions.
# [3] = Stability of AN-197 under acidic conditions (citric acid solution); details: in ethyl acetate, stirred in citric acid solution overnight
# Description: To evaluate the stability of AN-197 under acidic conditions, a sample of AN-197, prepared according to the procedure described in Example 4 (Route B) above, was dissolved in ethyl acetate and stirred in a citric acid solution overnight.
# [4] = Chemical stability of mesylate and maleate salts by HPLC under various storage conditions
# Description: The chemical stability of the conjugates was determined by HPLC analyses and was measured by the relative peak areas of the substance and of at least one of its degradation products. Thus, as is further exemplified in the Examples section that follows, the chemical stability of the exemplary conjugates described above was measured during time periods that typically ranged from 1 day to 24 days, whereby the conjugates were kept in sealed or open containers, with or without nitrogen atmosphere, and at a temperature range of from −20° C. to 40° C.
# as §1
# (§2) Stability and hygroscopicity studies of the mesylate and maleate salts of the conjugate were carried out under various conditions. The hygroscopicity of the salts was determined by following the water content of the salt using the Karl Fischer (KF) titration analysis method. The chemical stability of the salts was determined by following the appearance of the degradation product perphenazine using HPLC analyses. The samples were kept at −20° C. under nitrogen, at room temperature in an open container, at room temperature in a sealed container and at 40° C. in a sealed container. The samples were tested at the end of the preparation procedure (t=0), 72 hours after the preparation time (t=72), 1 week after the preparation time (t=168) and two weeks after the preparation time (t=336).
# [5] = Hygroscopicity of mesylate and maleate salts by Karl Fischer titration
# Description: Water absorption and content measurements were carried out using a Karl Fischer (KF) titrator. Karl Fischer titration is a classic method in analytical chemistry that uses calometric titration to determine the moisture content of a sample, which is specific to water. The titration reaction taking place in the presence of a base and 50:50 methanol:dichloromethane as a titration solvent.
# The accurately weighted samples (near 100 mg) of the tested compound were placed in the titrator to determine the amount of sample required for measuring 10-250 μg of water, and the water content was calculated accordingly.
# as §2
# [6] = Solubility in 1% weight/volume lactic acid solution; details: agitated 1 hour at room temperature, listed as mesylate salt
# Description: 1.0 gram of each of the mesylate and maleate addition salts prepared as described herein was agitated in 10 ml of 1% weight/volume lactic acid solution for 1 hour at room temperature. Any solids remaining thereafter were filtered off and the filtrate was dried under vacuum until no further change in weight was detected. […] The calculated solubility obtained for the mesylate salt was more than 100 mg/ml.
# [7] = Chemical stability of mesylate and maleate salts by HPLC under various storage conditions; details: room temperature, open to the atmosphere; listed as mesylate salt
# [8] = Open container kept at room temperature, t = 0 hours
# [9] = Open container kept at room temperature, t = 72 hours
# [10] = Open container kept at room temperature, t = 168 hours
# [11] = Open container kept at room temperature, t = 336 hours
# [12] = Sealed container kept at 40° C., t = 0 hours
# [13] = Sealed container kept at 40° C., t = 72 hours
# [14] = Sealed container kept at 40° C., t = 168 hours
# [15] = Sealed container kept at 40° C., t = 336 hours
# [16] = Sealed container kept at room temperature, t = 0 hours
# [17] = Sealed container kept at room temperature, t = 72 hours
# [18] = Sealed container kept at room temperature, t = 168 hours
# [19] = Sealed container kept at room temperature, t = 336 hours
# [20] = Sealed container kept at −20° C. under N2, t = 0 hours
# [21] = Sealed container kept at −20° C. under N2, t = 72 hours
# [22] = Sealed container kept at −20° C. under N2, t = 168 hours
# [23] = Sealed container kept at −20° C. under N2, t = 336 hours
structure (smiles),measurement,setting,value
"CC(C)(C)OC(=O)NCCCC(=O)OCCN1CCN(CCCN2c3ccccc3Sc3ccc(Cl)cc32)CC1 [AN-197, Perphenazine N-Boc-4-aminobutyrate]",perphenazine content (HPLC),"[1]; AN-197 solution in HPLC mobile phase (2:1 acetonitrile:water, pH=8), after 24 days",7.98%
same,perphenazine content (HPLC),"[1]; AN-197 solution in HPLC mobile phase (2:1 acetonitrile:water, pH=8), initial",0.42%
same,perphenazine content (HPLC),"[1]; neat oil, after 24 days",0.79%
same,perphenazine content (HPLC),"[1]; neat oil, initial",0.42%
same,degradation,[2],no degradation had occurred
same,hydrolysis of the product,[3],no hydrolysis
NCCCC(=O)OCCN1CCN(CCCN2c3ccccc3Sc3ccc(Cl)cc32)CC1 [mesylate addition salt],Salt peak area,[4]; [8],97.91%
same,perphenazine peak area,[4]; [8],1.39%
same,Salt peak area,[4]; [9],90.30%
same,perphenazine peak area,[4]; [9],8.53%
same,Salt peak area,[4]; [10],81.40%
same,perphenazine peak area,[4]; [10],17.68%
same,Salt peak area,[4]; [11],61.97%
same,Unidentified impurity peak area,[4]; [11],0.05%
same,perphenazine peak area,[4]; [11],35.74%
same,Salt peak area,[4]; [12],97.91%
same,perphenazine peak area,[4]; [12],1.39%
same,Salt peak area,[4]; [13],91.83%
same,perphenazine peak area,[4]; [13],7.33%
same,Salt peak area,[4]; [14],91.91%
same,perphenazine peak area,[4]; [14],7.56%
same,Salt peak area,[4]; [15],87.17%
same,perphenazine peak area,[4]; [15],11.63%
same,Salt peak area,[4]; [16],97.91%
same,perphenazine peak area,[4]; [16],1.39%
same,Salt peak area,[4]; [17],95.84%
same,perphenazine peak area,[4]; [17],3.17%
same,Salt peak area,[4]; [18],94.98%
same,perphenazine peak area,[4]; [18],4.52%
same,Salt peak area,[4]; [19],91.67%
same,perphenazine peak area,[4]; [19],6.88%
same,Salt peak area,[4]; [20],97.91%
same,perphenazine peak area,[4]; [20],1.39%
same,Salt peak area,[4]; [21],98.08%
same,perphenazine peak area,[4]; [21],1.34%
same,Salt peak area,[4]; [22],98.22%
same,perphenazine peak area,[4]; [22],1.26%
same,Salt peak area,[4]; [23],98.24%
same,perphenazine peak area,[4]; [23],1.21%
same,stability in words,[4]; sealed container at −20° C. under nitrogen atmosphere,mostly stable
same,Water content %,[5]; [8],0.6%
same,Water content %,[5]; [9],1.2%
same,Water content %,[5]; [10],4.0%
same,Water content %,[5]; [11],4.8%
same,Water content %,[5]; [12],0.6%
same,Water content %,[5]; [13],0.8%
same,Water content %,[5]; [14],1.2%
same,Water content %,[5]; [15],0.9%
same,Water content %,[5]; [16],0.6%
same,Water content %,[5]; [17],0.8%
same,Water content %,[5]; [18],1.3%
same,Water content %,[5]; [19],1.5%
same,Water content %,[5]; [20],0.6%
same,Water content %,[5]; [21],0.6%
same,Water content %,[5]; [22],0.7%
same,Water content %,[5]; [23],0.6%
same,calculated solubility,[6],more than 100 mg/ml
same,texture and color after storage,[7],become sticky in texture and changed color from pink to black
